Measurements published in patent US10208046B2, “Nitrogen-containing heterocyclic compound” (Takeda Pharmaceutical Company Limited, priority 2014, dated 2019).
pEC50: −log10 of the molar value.

Target: T1, human M1 receptor (hCHRM1) (Homo sapiens, UniProt P11229)
T1 construct: expressed in transfected cells
T1 sequence (P11229 1-460): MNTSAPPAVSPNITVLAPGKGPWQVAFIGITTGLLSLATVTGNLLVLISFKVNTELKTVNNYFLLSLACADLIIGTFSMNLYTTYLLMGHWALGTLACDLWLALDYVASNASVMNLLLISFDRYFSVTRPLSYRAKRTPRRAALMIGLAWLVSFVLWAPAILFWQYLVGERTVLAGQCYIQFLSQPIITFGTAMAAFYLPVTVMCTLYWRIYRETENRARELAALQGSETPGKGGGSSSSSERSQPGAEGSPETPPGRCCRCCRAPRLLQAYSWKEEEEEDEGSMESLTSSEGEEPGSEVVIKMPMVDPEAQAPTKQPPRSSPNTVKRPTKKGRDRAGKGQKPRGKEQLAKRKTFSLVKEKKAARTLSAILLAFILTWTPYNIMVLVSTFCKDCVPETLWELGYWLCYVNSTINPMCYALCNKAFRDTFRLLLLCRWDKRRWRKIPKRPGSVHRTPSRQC
Experiment: Measurement of M1 receptor positive allosteric modulator (M1PAM) activity, calcium fluorescence in CHO-K1 cells;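 for pEC50: potency reported as IP value in nM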
Assay type: cell-based
Conditions: for activity (%) at 10 μM: 10 μM test compound with acetylcholine at EC20, 100% = acetylcholine 1 μM, 0% = DMSO; for pEC50: inflection point in the concentration-dependent curve, acetylcholine at EC20 (final 0.6-0.8 nM), CHO-K1 cells expressing human M1, Fluo-4, FLIPRtetra, read-out: IP value
Experimental: Measurement of M1 Receptor Positive Allosteric Modulator (M1PAM) Activity
The activity of a test compound in the presence of acetylcholine at EC20 concentration (final concentration 0.6-0.8 nM), which affords an action corresponding to about 20% of the maximum activity, was measured as PAM activity. The method is as follows. CHO-K1 cells stably expressing a human M1 receptor (hCHRM1) were plated on a 384-well black clear bottom plate (BD Falcon) at 5,000 cells/well, and cultured in an incubator at 37° C., 5% CO2 for 1 day. The medium in the cell plate was removed, and assay buffer A containing calcium indicator (Recording medium (DOJINDO LABORATORIES), 0.1% BSA (Wako Pure Chemical Industries, Ltd.), 2.5 μg/mL Fluo-4 AM (DOJINDO LABORATORIES), 0.08% Pluronic F127 (DOJINDO LABORATORIES), 1.25 mM probenecid (DOJINDO LABORATORIES)) was added at 30 μL/well. The cells were left standing in the incubator at 37° C., 5% CO2 for 30 min, and further left standing at room temperature for 30 min. A test compound prepared by diluting with assay buffer B (HBSS (Invitrogen), 20 mM HEPES (Invitrogen), 0.1% BSA) containing 2.4-3.2 nM acetylcholine was added at 10 μL/well, and the fluorescence was measured by FLIPRtetra (Molecular Devices) for 1 min every 1 second. With the definition that the amount of change in the fluorescence on addition of acetylcholine (final concentration 1 μM) is 100% and that on addition of DMSO instead of a test compound is 0%, the activity (%) of the test compound was calculated, and the inflection point in the concentration-dependent curve of the test compound was calculated as IP values.

Row | SMILES | activity (%) at 10 μM [%] | pEC50
1 | Cn1cc2cc(-c3ccc(CN4Cc5ccnc(OCC(C)(F)F)c5C4=O)cc3)ccc2n1 [Example 14, 4-(2,2-difluoropropoxy)-2-(4-(2-methyl-2H-indazol-5-yl)benzyl)-1,2-dihydro-3H-pyrrolo[3,4-c]pyridin-3-one] | 88 | 7.29
2 | Cc1nn(C)cc1-c1cc(F)c(CN2Cc3ncnc(OCC(F)F)c3C2=O)s1 [Example 15, 4-(2,2-difluoroethoxy)-6-((5-(1,3-dimethyl-1H-pyrazol-4-yl)-3-fluoro-2-thienyl)methyl)-6,7-dihydro-5H-pyrrolo[3,4-d]pyrimidin-5-one] | 100 | 7.80
3 | Cn1cc(-c2ccc(CN3Cc4ccnc(OCCC(F)(F)F)c4C3=O)c(F)c2)nn1 [Example 16, 2-(2-fluoro-4-(1-methyl-1H-1,2,3-triazol-4-yl)benzyl)-4-(3,3,3-trifluoropropoxy)-1,2-dihydro-3H-pyrrolo[3,4-c]pyridin-3-one] | 111 | 7.07
4 | CC(F)(F)COc1nccc2c1C(=O)N(Cc1ccc(-c3cnn(C4CC4)c3)cc1)C2 [Example 17, 2-(4-(1-cyclopropyl-1H-pyrazol-4-yl)benzyl)-4-(2,2-difluoropropoxy)-1,2-dihydro-3H-pyrrolo[3,4-c]pyridin-3-one] | 99 | 7.02
5 | Cc1nn(C)cc1-c1ccc(CN2Cc3ccnc(OCC(F)(F)C(F)F)c3C2=O)cc1 [Example 18, 2-(4-(1,3-dimethyl-1H-pyrazol-4-yl)benzyl)-4-(2,2,3,3-tetrafluoropropoxy)-1,2-dihydro-3H-pyrrolo[3,4-c]pyridin-3-one] | 102 | 6.55
6 | CCC(F)(F)COc1nccc2c1C(=O)N(Cc1ccc(-c3cnnc(C)c3)cc1)C2 [Example 19, 4-(2,2-difluorobutoxy)-2-(4-(6-methylpyridazin-4-yl)benzyl)-1,2-dihydro-3H-pyrrolo[3,4-c]pyridin-3-one] | 98 | 6.62
7 | CC(F)(F)COc1nccc2c1C(=O)N(Cc1ccc(-c3ccns3)cc1)C2 [Example 20, 4-(2,2-difluoropropoxy)-2-(4-(1,2-thiazol-5-yl)benzyl)-1,2-dihydro-3H-pyrrolo[3,4-c]pyridin-3-one] | 91 | 6.44
8 | CC(F)(F)COc1nccc2c1C(=O)N(Cc1ccc(-c3ccoc3)cc1F)C2 [Example 21, 4-(2,2-difluoropropoxy)-2-(2-fluoro-4-(3-furyl)benzyl)-1,2-dihydro-3H-pyrrolo[3,4-c]pyridin-3-one] | 101 | 6.54
9 | CCn1cc(-c2ccc(CN3Cc4ncnc(OCC(F)(F)CC)c4C3=O)s2)cn1 [Example 30, 4-(2,2-difluorobutoxy)-6-((5-(1-ethyl-1H-pyrazol-4-yl)-2-thienyl)methyl)-6,7-dihydro-5H-pyrrolo[3,4-d]pyrimidin-5-one] | 103 | 7.02
10 | Cc1nn(C)cc1-c1ccc(CN2Cc3ncnc(OCC(F)F)c3C2=O)s1 [Example 34, 4-(2,2-difluoroethoxy)-6-((5-(1,3-dimethyl-1H-pyrazol-4-yl)-2-thienyl)methyl)-6,7-dihydro-5H-pyrrolo[3,4-d]pyrimidin-5-one] | 100 | 7.11
11 | CCn1cc(-c2ccc(CN3Cc4ncnc(OCC(F)(F)F)c4C3=O)c(F)c2)cn1 [Example 35, 6-(4-(1-ethyl-1H-pyrazol-4-yl)-2-fluorobenzyl)-4-(2,2,2-trifluoroethoxy)-6,7-dihydro-5H-pyrrolo[3,4-d]pyrimidin-5-one] | 98 | 7.57
12 | Cc1nn(C)cc1-c1ccc(CN2Cc3ncnc(OCC(F)(F)F)c3C2=O)c(F)c1 [Example 36, 6-(4-(1,3-dimethyl-1H-pyrazol-4-yl)-2-fluorobenzyl)-4-(2,2,2-trifluoroethoxy)-6,7-dihydro-5H-pyrrolo[3,4-d]pyrimidin-5-one] | 99 | 7.66
13 | CCn1cc(-c2ccc(CN3Cc4ncnc(OCC(F)(F)F)c4C3=O)cc2)cn1 [Example 37, 6-(4-(1-ethyl-1H-pyrazol-4-yl)benzyl)-4-(2,2,2-trifluoroethoxy)-6,7-dihydro-5H-pyrrolo[3,4-d]pyrimidin-5-one] | 98 | 7.34
14 | Cc1nn(C)cc1-c1ccc(CN2Cc3ncnc(OCC(F)(F)F)c3C2=O)cc1 [Example 39, 6-(4-(1,3-dimethyl-1H-pyrazol-4-yl)benzyl)-4-(2,2,2-trifluoroethoxy)-6,7-dihydro-5H-pyrrolo[3,4-d]pyrimidin-5-one] | 93 | 7.40
15 | Cc1nn(C)cc1-c1ccc(CN2Cc3ncnc(OCC(F)F)c3C2=O)c(F)c1 [Example 40, 4-(2,2-difluoroethoxy)-6-(4-(1,3-dimethyl-1H-pyrazol-4-yl)-2-fluorobenzyl)-6,7-dihydro-5H-pyrrolo[3,4-d]pyrimidin-5-one] | 96 | 8.05
16 | Cc1nn(C)cc1-c1ccc(CN2Cc3ncnc(OCC(F)F)c3C2=O)cc1 [Example 42, 4-(2,2-difluoroethoxy)-6-(4-(1,3-dimethyl-1H-pyrazol-4-yl)benzyl)-6,7-dihydro-5H-pyrrolo[3,4-d]pyrimidin-5-one] | 106 | 7.64
17 | CCn1cc(-c2ccc(CN3Cc4ncnc(OCC(C)(C)F)c4C3=O)c(F)c2)cn1 [Example 44, 6-(4-(1-ethyl-1H-pyrazol-4-yl)-2-fluorobenzyl)-4-(2-fluoro-2-methylpropoxy)-6,7-dihydro-5H-pyrrolo[3,4-d]pyrimidin-5-one] | 86 | 8.17
18 | CCn1cc(-c2ccc(CN3Cc4ncnc(OCC(C)(C)F)c4C3=O)cc2)cn1 [Example 45, 6-(4-(1-ethyl-1H-pyrazol-4-yl)benzyl)-4-(2-fluoro-2-methylpropoxy)-6,7-dihydro-5H-pyrrolo[3,4-d]pyrimidin-5-one] | 87 | 8.00
19 | Cc1nn(C)cc1-c1ccc(CN2Cc3ncnc(OCC(C)(C)F)c3C2=O)c(F)c1 [Example 46, 6-(4-(1,3-dimethyl-1H-pyrazol-4-yl)-2-fluorobenzyl)-4-(2-fluoro-2-methylpropoxy)-6,7-dihydro-5H-pyrrolo[3,4-d]pyrimidin-5-one] | 90 | 8.28
20 | O=C1c2c(ccnc2OCC(F)F)CN1Cc1ccc(-c2cnn(CC(F)F)c2)cc1F [Example 56, 4-(2,2-difluoroethoxy)-2-(4-(1-(2,2-difluoroethyl)-1H-pyrazol-4-yl)-2-fluorobenzyl)-1,2-dihydro-3H-pyrrolo[3,4-c]pyridin-3-one] | 102 | 7.68
21 | O=C1c2c(ccnc2OCC(F)F)CN1Cc1ccc(-c2cnn(CC(F)(F)F)c2)cc1F [Example 57] | 101 | 7.74
22 | CCn1cc(-c2ccc(CN3Cc4ccnc(OCC(F)F)c4C3=O)c(F)c2)cn1 [Example 58, 4-(2,2-difluoroethoxy)-2-(4-(1-ethyl-1H-pyrazol-4-yl)-2-fluorobenzyl)-1,2-dihydro-3H-pyrrolo[3,4-c]pyridin-3-one] | 104 | 7.46
